# Molecular target: T1, mTOR kinase (mTORC1 and mTORC2 kinase complex) (Homo sapiens, UniProt P42345)
# T1 construct: purchased DiscoverX; host or cells: HEK-293
# Assay: In vitro evaluation of mTOR kinase inhibitory activity (DiscoverX ligand-bead competition binding, qPCR readout)
# Description: Experimental Embodiment 1: In Vitro Evaluation of mTOR Kinase Inhibitory Activity This experiment was performed by DiscoverX. All materials and methods were obtained from DiscoverX.
# Kinase activity analysis.
# 1. Labeled mTOR kinase was stably expressed in HEK-293 cells.
# 2. Streptavidin magnetic beads were treated with biotinylated small molecule ligands at room temperature for 30 minutes to produce affinity resin for kinase analysis;
# 3. Ligand beads were blocked with excess biotin and washed with buffer (1% bovine serum albumin, […]) to remove unbound ligand and non-specifically bound ligand;
# 4. The assembly of kinase and ligand and affinity beads, and the binding reaction between the compound and the three were performed in buffer (20% blocking buffer, 0.17x phosphate buffer, 0.05% Tween […]);
# 5. The test compounds were dissolved in dimethyl sulfoxide;
# 6. All test compounds were dissolved in DMSO, and then directly diluted […]
# 7. The solution was placed in a 384-well polypropylene plate, wherein the volume of each well was 0.02 mL;
# 8. The plate was shaked for an hour at room temperature;
# 9. The plate was washed with buffer (1× PBS, 0.05% Tween 20);
# 10. The affinity beads were resuspended in buffer (1× PBS, 0.05% Tween […] non-biotin affinity ligand) and incubated at room temperature for 30 minutes;
# 11. The kinase concentration in the eluate was deteced by qPCR.
row,SMILES,Kd [nM]
1,"CNC(=O)c1cccc(-c2ccc3c(N4CCOCC4C)nc(N4CCOC5CC54)nc3n2)c1 (single isomer, unassigned) [Embodiment 18-1]",3
2,"CNC(=O)c1cccc(-c2ccc3c(N4CCOCC4C)nc(N4CCOC5CC54)nc3n2)c1 (single isomer, unassigned) [Embodiment 18-2]",0.5
3,CNC(=S)c1cccc(-c2ccc3c(N4CCOC[C@@H]4C)nc(N4CCOC5(CC5)C4)nc3n2)c1 [Embodiment 2],0.15
4,CONC(=O)c1cccc(-c2ccc3c(N4CCOC[C@@H]4C)nc(N4CCOC5(CC5)C4)nc3n2)c1 [Embodiment 3],0.32
5,C[C@H]1COCCN1c1nc(N2CCOC3(CC3)C2)nc2nc(-c3cccc(C(=O)NO)c3)ccc12 [Embodiment 4],0.22
6,CNC(=O)c1cccc(-c2ccc3c(N4CCOC[C@@H]4C)nc(C4CCC5(CC4)OCCO5)nc3n2)c1 [Embodiment 5],0.66
7,CNC(=O)c1cccc(-c2ccc3c(N4CCOC[C@@H]4C)nc(N4CC5(CCOCC5)C4)nc3n2)c1 [Embodiment 6],12
8,CNC(=O)c1cccc(-c2ccc3c(N4CCOC[C@@H]4C)nc(N4CCC5(CC4)COC5)nc3n2)c1 [Embodiment 7],6.4
9,CNC(=O)c1cccc(-c2ccc3c(N4CCOCC4C)nc(N4CCC5(CCOC5)CC4)nc3n2)c1 (stereo not shown) [Embodiment 8],5.9
10,CNC(=O)c1cccc(-c2ccc3c(N4CCOCC4C)nc(N4CCC5(CC4)CC5)nc3n2)c1 (stereo not shown) [Embodiment 10],7.8
11,Nc1nc2cc(-c3ccc4c(N5C6CCC5COC6)nc(N5CCOC6(CC6)C5)nc4n3)ccc2o1 [Embodiment 11],1.2
12,C[C@H]1COCCN1c1nc(N2CCOC3(CC3)C2)nc2nc(-c3ccc4ccc(N)nc4c3)ccc12 [Embodiment 14],0.25
13,CNC(=O)c1cccc(-c2ccc3c(N4CCOC[C@@H]4C)nc(N4CCOC5(CNC5)C4)nc3n2)c1 [Embodiment 15],3.3
14,C[C@H]1COCCN1c1nc(N2CCOC3(CC3)C2)nc2nc(-c3ccc4nc(N)ncc4c3)ccc12 [Embodiment 16],1.5
15,C[C@H]1COCCN1c1nc(N2CCOC3(CC3)C2)nc2nc(-c3cccc(-c4ccn[nH]4)c3)ccc12 [Embodiment 17],3.4

# Results, then the compound that gave them:
row,Kd [nM],SMILES
1,0.5,"CNC(=O)c1cccc(-c2ccc3c(N4CCOCC4C)nc(N4CCOC5(CCSC5)C4)nc3n2)c1 (single isomer, unassigned) [Embodiment 45-1]"
2,1.7,"CNC(=O)c1cccc(-c2ccc3c(N4CCOCC4C)nc(N4CCOC5(CCSC5)C4)nc3n2)c1 (single isomer, unassigned) [Embodiment 45-2]"
3,1,"CNC(=O)c1cccc(-c2ccc3c(N4CCOCC4C)nc(N4CCOC5(CC[S+]([O-])C5)C4)nc3n2)c1 (single isomer, unassigned) [Embodiment 46-1]"
4,4.9,"CNC(=O)c1cccc(-c2ccc3c(N4CCOCC4C)nc(N4CCOC5(CC[S+]([O-])C5)C4)nc3n2)c1 (single isomer, unassigned) [Embodiment 46-2]"
5,7.9,"CNC(=O)c1cccc(-c2ccc3c(N4CCOCC4C)nc(N4CCOC5(CCS(=O)(=O)C5)C4)nc3n2)c1 (single isomer, unassigned) [Embodiment 47-1]"
6,7.9,"CNC(=O)c1cccc(-c2ccc3c(N4CCOCC4C)nc(N4CCOC5(CCS(=O)(=O)C5)C4)nc3n2)c1 (single isomer, unassigned) [Embodiment 47-2]"
7,1.8,"CNC(=O)c1cccc(-c2ccc3c(N4CCOCC4C)nc(N4CC5(CCOC5)OCC4C)nc3n2)c1 (single isomer, unassigned) [Embodiment 48-1]"
8,1.9,"CC1COCCN1c1nc(N2CCOC3(CCOC3)C2)nc2nc(-c3cccc(C(N)=O)c3)ccc12 (single isomer, unassigned) [Embodiment 50-1]"
9,1.1,"CNC(=O)c1cccc(-c2ccc3c(N4CCOCC4C)nc(N4CCOC5(CNC(=O)C5)C4)nc3n2)c1 (single isomer, unassigned) [Embodiment 53-1]"
10,1.8,"CNC(=O)c1cccc(-c2ccc3c(N4CCOCC4C)nc(N4CCOC5(CNC(=O)C5)C4)nc3n2)c1 (single isomer, unassigned) [Embodiment 53-2]"

# Source: patent US11377444B2, “Pyridopyrimidine compounds acting as mTORC 1/2 dual inhibitors” (MEDSHINE DISCOVERY INC., priority 2017, dated 2022)
